In US10729749B2, “Neurodegenerative disorders” (priority 2014, dated 2020):
Ends that are not written are not given here.

What was measured:
Format in all cases: cell-based
PC12 cells [1] = assay: Value coefficient (AChE release vs PC12 cell viability) and filter selection; conditions: for Value AChE/Viability: 1.0 to 1.1 = protective, control = 1; for neuroprotective agent against T30 when all four filters are taken into consideration: filters: value coefficient, in silico binding, calcium influx, peptide size
Source text: AChE release vs PC12 cell viability (for which there is a significant negative correlation); • 2. In silico binding to the allosteric site of the α7 nicotinic-receptor; • 3. Calcium influx into PC12 cells; and • 4. Peptide size.

PC12 cells [2] = assay: Acetylcholinesterase activity assay (AChE release from PC12 cells, Ellman reagent); conditions: % AChE release compared to untreated control
Method: AChE activity was measured using the Ellman reagent that measures the presence of thiol groups as a result of AChE activity. Cells were plated the day before the experiment as for the cell viability assay. […] The Ellman reagent was prepared as a mixture of the 3 solutions in a ratio 33(A):3(B):4(C). Absorbance measurements were taken at regular intervals (3, 10, 30 and 60 mins) across experiments at 405 nm.

[3] = Cell viability assay (Cell Counting Kit-8); conditions: % PC12 cell viability compared to untreated control;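 further: PC12 cells in 96-well plates, WST-8 turned into formazan by cellular dehydrogenases, absorbance read at 450 nm after 2 h with the reagent, signal proportional to living cell number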
Source text: A Cell Counting Kit-8 (CCK-8) was used as an improvement of the SRB technique used before. By utilizing the highly water-soluble tetrazolium salt WST-8, CCK-8 produces a water-soluble formazan dye upon reduction in the presence of an electron carrier. WST-8 is reduced by dehydrogenases in cells to give a yellow colored product (formazan), which is soluble in the tissue culture medium. The amount of the formazan dye generated by the activity of dehydrogenases in cells is directly proportional to the number of living cells. PC12 cells are plated in 200 μl of complete growth medium the day before the experiment in 96 well plates. […] Subsequently, 100 μl of growth medium is removed and 10 μl of CCK-8 (Cell Counting Kit-8) solution is added. The plate is incubated for 2 hours in the incubator and then placed in the absorbance plate reader. The absorbance must be measured at 450 nm.

PC12 cells [4] = assay: Calcium fluorometry (Fluo-8, acetylcholine-induced calcium influx); set-up: Calcium: scale not given here; conditions: for Calcium: calcium influx value, control based on acetylcholine alone; for dose-dependent effect on calcium potentiation against T30: dose-dependent experiments, FIGS. 8 and 9
Source text: A final criterion used to determine active peptides is the amount of calcium influx into PC12 cells caused by the peptide. The calcium influx value can be calculated as described in the methods section. The calcium value corresponds to the result from the experiment when applying T30 or Aβ alone or in conjunction with the small peptides. The control value for these experiments is based on the calcium influx induced by acetylcholine alone. Preferably, the peptide, derivative or analogue thereof has a calcium influx value of less than 120, and more preferably a value of 97-120.
PC12 cells are plated in 200 μl of complete growth medium the day before the experiment in 96 well plates. On the day of the experiment, the Fluo-8 solution (Abcam) is prepared (as per provider protocol). Subsequently, 100 μl of growth medium is removed and 100 μl of Fluo-8 solution is added. Treatments with T30 or Aβ in conjunction with NBP-14 or small peptides are added and incubated for 30 minutes in the incubator and 30 minutes room temperature.
After 1 hour, the plate is placed in the fluorescence plate reader (Fluostar). Before reading the fluorescence, acetylcholine (ACh) 100 μM is prepared and placed in the Fluostar injector. For each well, the reading will be formed by a basal fluorescence followed by acetylcholine injection that will induce an increase of calcium via nicotinic receptors. The effects of the peptides are then evaluated.

[5] = T30 5 μM + small peptide 0.5 μM

Substance | Value AChE/Viability (PC12 cells [1]; [5]) | neuroprotective agent against T30 when all four filters are taken into consideration (PC12 cells [1]) | AChE (PC12 cells [2]; [5]) | viability [3, 5] | Calcium (PC12 cells [4]; T30 + small peptide) | Value AChE/Viability (PC12 cells [1]; Aβ 5 μM + small peptide 0.5 μM) | AChE (PC12 cells [2]; Aβ 5 μM + small peptide 0.5 μM) | viability ([3]; Aβ 5 μM + small peptide 0.5 μM) | Calcium (PC12 cells [4]; Aβ + small peptide) | dose-dependent effect on calcium potentiation against T30 (PC12 cells [4])
AEFHRWSS [NBP-804] | 1 | neuroprotective agents against T30 | 107.69% | 108% | 106.7 |  |  |  |  | 
AEFHRWSSYMV [NBP-1104] | 1 |  | 102.36% | 111% | 119.82 |  |  |  |  | 
EFHRWSS [NBP-705, EFHRWSS] | 1.03 | neuroprotective agents against T30 | 94.07% | 91% | 111.98 |  |  |  |  | 
EFHRWSSYM [NBP-905] |  |  |  |  |  | 1.09 | 106.42% | 97.2% | 194.22 | 
EFHRWSSYMVHW [NBP-1205] | 1.07 |  | 95.79% | 89.4% | 132.71 |  |  |  |  | 
EFHRWSSYMVHWKA [NBP-1405] | 1.09 |  | 91.57% | 83.9% | 100.59 |  |  |  |  | 
FHRWSS [NBP-606] | 1.05 |  | 107.88% | 103% | 131.85 |  |  |  |  | 
FHRWSSYMVHWK [NBP-1206] |  |  |  |  |  | 1.04 | 96.92% | 93.6% | 127.27 | 
FHRWSSYMVHWKAE [NBP-1406] | 1.07 |  | 92.78% | 86.6% | 101.06 |  |  |  |  | 
HRWSSY [NBP-607] |  |  |  |  |  | 1.03 | 97.53% | 94.9% | 168.97 | 
HRWSSYM [NBP-707] | 1 |  | 98.35% | 98.5% | 120.17 |  |  |  |  | 
HRWSSYMVHWK [NBP-1107] | 1 |  | 93.13% | 93.1% | 95.43 |  |  |  |  | 
HRWSSYMVHWKA [NBP-1207] |  |  |  |  |  | 1.08 | 94.30% | 87.4% | 261.22 | 
HRWSSYMVHWKAE [NBP-1307] |  |  |  |  |  | 1.02 | 94.29% | 92.5% | 218.25 | 
HRWSSYMVHWKAEF [NBP-1407] | 1.04 |  | 94.49% | 90.5% | 111.71 |  |  |  |  | 
HWKAEF [NBP-601, HWKAEF] | 1.08 | neuroprotective agents against T30 | 100.99% | 93.2% | 118.37 |  |  |  |  | protect against T30 effects
HWKAEFHR [NBP-801] |  |  |  |  |  | 1.06 | 108.63% | 102% | 168.66 | 
HWKAEFHRWSS [NBP-1101] | 1 |  | 91.9% | 91.9% | 86.58 |  |  |  |  | 
HWKAEFHRWSSY [NBP-1201] |  |  |  |  |  | 1.02 | 94.84% | 93.1% | 114.35 | 
KAEFH [NBP-503] |  |  |  |  |  | 1.07 | 117.63% | 110% | 195.67 | 
KAEFHRWSSYMV [NBP-1203] |  |  |  |  |  | 1.04 | 99.63% | 95.5% | 192.38 | 
KAEFHRWSSYMVH [NBP-1303] |  |  |  |  |  | 1.06 | 96.73% | 91.2% | 106.33 | 
MVHWKA [NBP-613, MVHWKA] | 1 | neuroprotective agents against T30 | 103.45% | 103% | 102.29 |  |  |  |  | protect against T30 effects
MVHWKAEFHR [NBP-1013] | 1.08 |  | 91.79% | 85.3% | 181.12 |  |  |  |  | 
